Test results: publication PMC4844176 (Xenobiotica; the fate of foreign compounds in biological …, 2015)

Tests used:
UGT2B4 = molecular target: T1, UGT2B4 (Homo sapiens, UniProt P06133); assay: Screening for aprepitant glucuronidation, UGT2B4 Supersomes; type: in vitro ADME; conditions: UGT2B4, 5 and 250 µM aprepitant
T1 sequence (P06133 24-528): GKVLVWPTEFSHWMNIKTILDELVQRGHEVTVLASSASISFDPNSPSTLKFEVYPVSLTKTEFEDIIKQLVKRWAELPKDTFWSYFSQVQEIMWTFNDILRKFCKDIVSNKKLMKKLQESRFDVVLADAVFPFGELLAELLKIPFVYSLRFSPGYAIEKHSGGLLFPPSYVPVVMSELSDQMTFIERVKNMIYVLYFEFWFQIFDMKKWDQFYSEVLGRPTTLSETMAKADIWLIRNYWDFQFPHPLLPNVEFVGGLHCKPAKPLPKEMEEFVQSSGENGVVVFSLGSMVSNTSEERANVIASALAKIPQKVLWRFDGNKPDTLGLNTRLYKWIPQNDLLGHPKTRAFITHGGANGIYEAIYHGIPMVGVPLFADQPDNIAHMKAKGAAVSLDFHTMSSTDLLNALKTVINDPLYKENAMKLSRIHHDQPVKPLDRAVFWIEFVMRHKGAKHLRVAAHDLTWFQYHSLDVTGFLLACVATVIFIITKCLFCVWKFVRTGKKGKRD

UGT2B10 = molecular target: T2, UGT2B10 (Homo sapiens, UniProt P36537); assay: Screening for aprepitant glucuronidation, UGT2B10 Supersomes; type: in vitro ADME; conditions: UGT2B10, 5 and 250 µM aprepitant
T2 sequence (P36537 24-528): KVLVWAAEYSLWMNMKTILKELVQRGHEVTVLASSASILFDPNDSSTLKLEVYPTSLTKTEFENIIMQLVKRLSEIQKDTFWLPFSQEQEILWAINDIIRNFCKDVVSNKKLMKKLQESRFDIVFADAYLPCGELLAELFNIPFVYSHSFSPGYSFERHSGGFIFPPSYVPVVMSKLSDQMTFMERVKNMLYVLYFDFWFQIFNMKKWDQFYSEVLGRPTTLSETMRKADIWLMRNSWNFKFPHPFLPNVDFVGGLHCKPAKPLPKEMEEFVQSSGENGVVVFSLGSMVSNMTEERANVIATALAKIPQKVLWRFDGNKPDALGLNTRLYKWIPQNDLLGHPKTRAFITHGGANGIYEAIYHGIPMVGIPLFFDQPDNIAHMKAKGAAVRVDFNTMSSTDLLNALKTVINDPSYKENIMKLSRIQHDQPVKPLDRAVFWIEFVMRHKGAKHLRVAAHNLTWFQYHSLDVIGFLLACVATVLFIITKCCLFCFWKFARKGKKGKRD

UGT1A6 = molecular target: T3, UGT1A6 (Homo sapiens, UniProt P19224); assay: Inhibition by aprepitant of UGT1A6; type: in vitro ADME; conditions: UGT1A6 enzyme, pH 7.5, probe 4-MU
T3 sequence (P19224 27-532): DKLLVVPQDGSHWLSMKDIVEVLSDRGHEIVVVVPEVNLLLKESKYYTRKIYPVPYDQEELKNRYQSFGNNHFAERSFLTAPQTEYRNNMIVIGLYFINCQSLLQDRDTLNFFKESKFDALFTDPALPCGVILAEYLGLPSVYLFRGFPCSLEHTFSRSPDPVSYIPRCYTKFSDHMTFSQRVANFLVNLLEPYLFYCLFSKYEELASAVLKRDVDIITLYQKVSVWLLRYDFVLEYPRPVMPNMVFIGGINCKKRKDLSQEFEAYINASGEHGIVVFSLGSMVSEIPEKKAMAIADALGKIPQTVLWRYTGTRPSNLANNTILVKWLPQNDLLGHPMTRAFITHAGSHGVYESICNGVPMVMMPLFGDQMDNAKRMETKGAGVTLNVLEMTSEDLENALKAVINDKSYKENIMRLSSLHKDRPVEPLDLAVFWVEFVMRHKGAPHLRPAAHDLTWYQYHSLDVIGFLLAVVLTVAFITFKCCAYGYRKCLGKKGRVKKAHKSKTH

UGT1A4 = molecular target: T4, UGT1A4 (Homo sapiens, UniProt P22310); assay: Inhibition by aprepitant of UGT1A4; type: in vitro ADME; conditions: UGT1A4 enzyme, probe imipramine
T4 sequence (P22310 29-534): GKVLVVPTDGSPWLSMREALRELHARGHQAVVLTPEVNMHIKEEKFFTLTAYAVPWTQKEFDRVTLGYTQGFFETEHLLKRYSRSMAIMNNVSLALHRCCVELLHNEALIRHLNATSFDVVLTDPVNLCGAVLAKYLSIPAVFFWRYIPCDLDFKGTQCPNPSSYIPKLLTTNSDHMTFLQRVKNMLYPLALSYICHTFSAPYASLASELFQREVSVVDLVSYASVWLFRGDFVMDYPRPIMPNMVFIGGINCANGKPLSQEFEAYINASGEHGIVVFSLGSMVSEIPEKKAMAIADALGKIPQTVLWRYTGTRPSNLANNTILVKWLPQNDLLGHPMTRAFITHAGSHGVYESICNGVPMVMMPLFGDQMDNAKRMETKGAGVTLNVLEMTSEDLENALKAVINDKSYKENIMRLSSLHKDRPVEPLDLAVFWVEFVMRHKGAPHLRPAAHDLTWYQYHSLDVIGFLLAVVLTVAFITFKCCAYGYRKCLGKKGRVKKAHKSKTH

UGT1A7 = molecular target: T5, UGT1A7 (Homo sapiens, UniProt Q9HAW7); assay: Inhibition by aprepitant of UGT1A7; type: in vitro ADME; conditions: UGT1A7 enzyme, pH 7.5, probe 4-MU
T5 sequence (Q9HAW7 26-530): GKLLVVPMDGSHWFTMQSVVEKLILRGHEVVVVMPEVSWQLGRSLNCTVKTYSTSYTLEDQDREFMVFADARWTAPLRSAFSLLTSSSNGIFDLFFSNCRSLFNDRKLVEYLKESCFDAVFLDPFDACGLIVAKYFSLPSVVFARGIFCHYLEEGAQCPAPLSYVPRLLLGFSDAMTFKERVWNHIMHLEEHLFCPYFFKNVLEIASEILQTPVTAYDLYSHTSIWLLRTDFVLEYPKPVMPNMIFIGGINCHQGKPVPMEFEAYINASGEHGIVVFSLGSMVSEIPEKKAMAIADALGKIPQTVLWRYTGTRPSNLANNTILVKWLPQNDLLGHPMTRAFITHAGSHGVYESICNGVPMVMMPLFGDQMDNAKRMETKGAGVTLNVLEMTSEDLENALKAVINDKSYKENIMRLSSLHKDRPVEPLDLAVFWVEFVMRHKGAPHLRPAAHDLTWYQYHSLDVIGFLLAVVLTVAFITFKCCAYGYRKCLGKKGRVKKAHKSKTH

[1] = tested on: human intestinal microsomes (HIM)
[2] = ref Merck 2003; cited from earlier work
in vitro = conditions: human, microsomes, pH 7.5
[3] = tested on: UGTs in human intestinal microsomes (HIM); assay: in vitro; conditions: pH 7.5

AP-G formation (UGT2B4): not detected
AP-G formation (UGT2B10): not detected
inhibition at 10 µM (UGT1A6): 19%
inhibition at 60 min, 10 µM (UGT1A4): 18%
inhibition at 10 µM (UGT1A7): 17%
velocity of AP-G formation ([1]; human, 60 min, 250 µM, pH 7.5): 278.3 ± 1.9 fmol/min/mg protein
microsomal CLint (in vitro): 5600 µL/min/mg
Km at 60 min [3]: 63 ± 5 µM
SMILES: C[C@@H](O[C@H]1OCCN(Cc2n[nH]c(=O)[nH]2)[C@H]1c1ccc(F)cc1)c1cc(C(F)(F)F)cc(C(F)(F)F)c1 [aprepitant, Aprepitant]
Vmax ([1]; HIM, mean ± SE): 352 ± 8 fmol/min/mg protein
mean absolute oral bioavailability [2]: 60–65%
